Reference: ChEMBL document CHEMBL3507680, “University of Dundee, Gates Library screen for HepG2 cell viability”

assay: Human HepG2 cell viability assay in 384 well format; type: toxicity, cell-based; parameters: dose 125 nL, time 70.5 hour; cytotoxicity at 70.5 h: concentration not given beside the values; details: HepG2 cells, read-out: Inhibition

First: CCOc1ncccc1CNC(=O)c1cc(C)on1
Second: CCOc1ncccc1CNC(=O)Nc1ccc(OC)c(OC)c1
The cytotoxicity at 70.5 h of the first is lower: -8.59% for the first, -5.39% for the second.

First: CC(=O)NCCNC(=O)c1cnc(-c2ccc(C)cc2C)s1
Second: CCNC(=O)C(C)NC(=O)c1cnc(-c2ccc(C)cc2C)s1 (centres undefined)
The cytotoxicity at 70.5 h of the first is lower: -6.99% for the first, 1.57% for the second.

Going from `O=C(c1cc2cc(F)ccc2[nH]1)N1CCC(Nc2ccc(F)cc2)CC1` to `O=C(c1cc2ccccc2[nH]1)N1CCC(Nc2cccnn2)CC1`, the cytotoxicity at 70.5 h falls from -4.25% to -6.88%.

First: O=C(Cc1c[nH]c2ccccc12)N1CCC(Nc2cccnc2)CC1
Second: CN(c1cccnn1)C1CCN(C(=O)Cc2c[nH]c3ccccc23)CC1
The cytotoxicity at 70.5 h of the first is higher: -0.82% for the first, -4.23% for the second.

Compared with `CCc1ccc(C(=O)N2CCN(c3nc(C)cc(OC)n3)CC2)o1`, `Cc1csc(N2CCN(C(=O)Cc3ccc(C)s3)CC2)n1` is lower in cytotoxicity at 70.5 h: 4.76% for the first, 3.83% for the second.

Compared with `CNC(=O)c1ccc(CNC(=O)NCCN(C)C2CCCC2)cc1`, `Cc1nc(CNC(=O)NCCc2ccc(N(C)C)cc2)cs1` is higher in cytotoxicity at 70.5 h: -1.36% for the first, -0.758% for the second.

Compared with `O=C(c1cc2c(F)cccc2[nH]1)N1CCC(Nc2cccnn2)CC1`, `Cc1cnn(CCC(=O)N2CCC(Nc3cccnn3)CC2)c1` is higher in cytotoxicity at 70.5 h: 0.884% for the first, 18.3% for the second.

First: CN1CCOC(CNCc2csc(C3CCCCC3)n2)C1 (centres undefined)
Second: Cn1cnc2c1CCN(Cc1csc(C3CCCC3)n1)C2
The cytotoxicity at 70.5 h of the first is lower: -13.3% for the first, -9.44% for the second.

Going from `CC(O)(CN1CCC(O)CC1)c1cccc(C(F)(F)F)c1` (centres undefined) to `Cn1ncc2c1CCCC2NCc1cccc(C(F)(F)F)c1` (centres undefined), the cytotoxicity at 70.5 h rises from -14.5% to -5.81%.

Going from `Cc1nn(C)c(N(C)C)c1CNC(C)COc1ccc(F)cc1F` (centres undefined) to `CCOc1cccc(C(C)NCc2c(C)nn(C)c2N(C)C)c1` (centres undefined), the cytotoxicity at 70.5 h falls from -8.01% to -8.02%.

Going from `O=C(CCn1cncn1)N1CCCC1c1noc(C2CC2)n1` (centres undefined) to `c1cnc(-c2nc(CN3CCCC(Cn4cncn4)C3)cs2)nc1` (centres undefined), the cytotoxicity at 70.5 h falls from -7.06% to -11%.

First: COCCOc1ncccc1C(=O)N1CCCC(n2ccnc2C)C1 (centres undefined)
Second: CCc1nccn1C1CCCN(C(=O)c2cn3cccnc3n2)C1 (centres undefined)
The cytotoxicity at 70.5 h of the first is lower: -13.5% for the first, -11.4% for the second.

First: O=C(NCCn1ccnc1)N1CCN(Cc2cccnc2)CC1
Second: O=C(NCCn1ccnc1)N1CCN(Cc2ccsc2)CC1
The cytotoxicity at 70.5 h of the first is lower: -5.29% for the first, 9.21% for the second.

First: CCCC(=O)NC(C)c1nnc2n1CCC2 (centres undefined)
Second: O=C(Cc1ccc2c(c1)OCCO2)NCCc1nnc2n1CCC2
The cytotoxicity at 70.5 h of the first is lower: -15.3% for the first, 12.2% for the second.

Compared with `CCOc1ncccc1CNC(=O)Nc1ccccc1`, `CCn1cc(NC(=O)NCc2ccc3c(c2)OCO3)cn1` is lower in cytotoxicity at 70.5 h: 16.2% for the first, -1.53% for the second.

First: CN(C)c1ncccc1CNS(=O)(=O)c1cc(F)cc(F)c1
Second: CN(C)c1ncccc1CNS(=O)(=O)c1cc(F)ccc1F
The cytotoxicity at 70.5 h of the first is higher: -6.43% for the first, -11.5% for the second.

First: Cn1ccc(C(=O)NCc2ccccc2CN2CCCC2)cc1=O
Second: Cn1ccc(C(=O)NCc2ccccc2CN2CCCCC2)cc1=O
The cytotoxicity at 70.5 h of the first is higher: 16% for the first, -7.11% for the second.

Going from `O=C(NCCn1ccnc1)N1CCCN(Cc2cccs2)CC1` to `Cc1cccc(C(=O)N2CCCN(Cc3cscn3)CC2)c1`, the cytotoxicity at 70.5 h rises from -9.01% to -4.03%.

First: Fc1cccc(-n2ccc(CN3CCCC3Cn3cccn3)n2)c1 (centres undefined)
Second: c1csc(-c2nc(CN3CCOC(Cn4cccn4)C3)co2)c1 (centres undefined)
The cytotoxicity at 70.5 h of the first is lower: -14.3% for the first, -8.17% for the second.

Going from `Cc1nnc(NC(=O)CN2CCc3nn(C)c(=O)cc3C2)s1` to `CCCn1nc2c(cc1=O)CN(CCS(C)(=O)=O)CC2`, the cytotoxicity at 70.5 h falls from 10.8% to 9.12%.

Compared with `CCc1n[nH]c(C2CN(C(=O)c3cnc(C)cn3)CCO2)n1` (centres undefined), `Cc1csc(C2CCCN(C(=O)c3cnc[nH]3)C2)n1` (centres undefined) is higher in cytotoxicity at 70.5 h: -10.6% for the first, -0.708% for the second.

First: Cc1nc(CN(C)C2CCN(CCc3ccccn3)C2)no1 (centres undefined)
Second: Cc1nc(CN(C)C2CCN(CCCc3ccccc3)C2)no1 (centres undefined)
The cytotoxicity at 70.5 h of the first is higher: 24.5% for the first, -2.23% for the second.

Compared with `Cc1cnn(CC2CCCN2CC(=O)Nc2cc(C(C)C)no2)c1` (centres undefined), `Cc1cnn(CC2CCCN2CC(=O)Nc2cc(C)no2)c1` (centres undefined) is higher in cytotoxicity at 70.5 h: -7.84% for the first, -3.79% for the second.

First: CN1CCC/C1=N\S(=O)(=O)c1ccc(NC(=O)c2ccco2)cc1
Second: CN1CCC/C1=N\S(=O)(=O)c1ccc(NC(=O)c2ccc(Cl)s2)cc1
The cytotoxicity at 70.5 h of the first is higher: 11.9% for the first, -18.3% for the second.

First: CCn1cc(NC(=O)NCCc2ccc3c(c2)OCCO3)cn1
Second: CCn1cc(NC(=O)Nc2ccc3c(c2)OCCO3)cn1
The cytotoxicity at 70.5 h of the first is lower: -6.54% for the first, -5.76% for the second.

First: CCN(CC)C(=O)c1ccc(-n2ncc(C#N)c2N)cc1
Second: CCc1ccc(C(=O)O)cc1S(=O)(=O)Nc1ccc(F)c(C#N)c1
The cytotoxicity at 70.5 h of the first is higher: 12.9% for the first, 6.85% for the second.

Compared with `Cc1cc(N2CCC(C(=O)NC3CC3)CC2)nc(-c2ccncc2)n1`, `COC(=O)C1CCN(c2cc(C)nc(-c3ccncc3)n2)CC1` is lower in cytotoxicity at 70.5 h: -7.6% for the first, -8.27% for the second.

First: CN(C)c1ccc(C(=O)N2CCN(Cc3cscn3)CC2)cn1
Second: CCc1ccsc1C(=O)N1CCN(CC(C)O)CC1 (centres undefined)
The cytotoxicity at 70.5 h of the first is lower: -6.24% for the first, -2.62% for the second.

Going from `CC(=O)NCC1CCN(c2cc(C)nc(-c3ccncc3)n2)CC1` to `Cc1cc(N2CCC(C(=O)N(C)C)CC2)nc(-c2ccncc2)n1`, the cytotoxicity at 70.5 h rises from -10.9% to 3.79%.

First: CCN(Cc1cccc2c1OCO2)C(=O)Nc1cn[nH]c1
Second: CC(C)c1nccn1C1CCCN(C(=O)c2cccc3c2OCO3)C1 (centres undefined)
The cytotoxicity at 70.5 h of the first is lower: -5.23% for the first, 8.22% for the second.

Going from `Cc1ccccc1OCC(O)CN1CCC(Cn2cccn2)CC1` (centres undefined) to `N#Cc1ccc(OCC(O)CN2CCC(Cn3cccn3)CC2)cc1` (centres undefined), the cytotoxicity at 70.5 h falls from 2.37% to -3.6%.

First: CCC(O)CN1CCN(C(=O)Cc2cc(C)ccc2OC)CC1 (centres undefined)
Second: CCC(O)CN1CCN(C(=O)Cc2ccc(OC)cc2OC)CC1 (centres undefined)
The cytotoxicity at 70.5 h of the first is lower: -1.58% for the first, 0.587% for the second.

First: COc1c(CNC2CCc3cc(F)ccc32)c(C(C)C)nn1C (centres undefined)
Second: COc1c(CNC2CCc3c(F)cccc32)c(C)nn1C (centres undefined)
The cytotoxicity at 70.5 h of the first is higher: 16.8% for the first, -7.24% for the second.

Going from `CC(c1cccc(S(N)(=O)=O)c1)N(C)CCOC(C)(C)C` (centres undefined) to `CC(c1cccc(S(N)(=O)=O)c1)N(C)CCCOc1ccccc1` (centres undefined), the cytotoxicity at 70.5 h falls from -2.34% to -4.57%.

Going from `Cc1cnn(CCNCc2nnc(-c3ccccc3)o2)c1` to `Cc1nc(-c2ccccc2)n(CC(=O)NCC(C)C)n1`, the cytotoxicity at 70.5 h falls from -1.2% to -3.55%.

Going from `Cc1cnc(CN2CCC(N(C)Cc3noc(C4CC4)n3)C2)o1` (centres undefined) to `Cc1nc(CN2CCOC(CNc3cccnn3)C2)cs1` (centres undefined), the cytotoxicity at 70.5 h falls from 11.7% to 2.31%.

Compared with `CCN1CCN(CCNC(=O)c2sc(C(C)C)nc2C)CC1`, `Cc1noc(C(C)C)c1C(=O)NCCCN1CCNCC1` is lower in cytotoxicity at 70.5 h: 0.965% for the first, -7.14% for the second.

First: O=C(c1ccccc1N1CCOCC1)N1CCCC(n2cccn2)C1 (centres undefined)
Second: O=C(c1ccc2c(c1)OCO2)N1CCCC(n2cccn2)C1 (centres undefined)
The cytotoxicity at 70.5 h of the first is higher: 1.3% for the first, -6.41% for the second.

Compared with `CCOc1cccc2c1OCC(C(=O)NS(=O)(=O)c1ccc(C)s1)=C2`, `CCOc1ccc(S(=O)(=O)NC(=O)CCC2CCCO2)cc1` (centres undefined) is lower in cytotoxicity at 70.5 h: -4.35% for the first, -10.5% for the second.

Compared with `O=C(NCCN1CCCCCC1=O)c1ccn(-c2ccc(F)cc2)n1`, `O=C(c1cccc(N2CCCC2=O)c1)N1CCCC(n2cncn2)C1` (centres undefined) is lower in cytotoxicity at 70.5 h: -6.58% for the first, -8.04% for the second.

Going from `Cc1csc(N2CCN(C(=O)CCNc3ncccn3)CC2)n1` to `Cc1csc(C2CCCN(C(=O)c3cc(Cl)c[nH]3)C2)n1` (centres undefined), the cytotoxicity at 70.5 h rises from -11.3% to -0.903%.

First: CC(O)CN1CCC(CNCc2cccc(C(N)=O)c2)CC1 (centres undefined)
Second: CCOc1cc(C)ccc1NC(=O)N(C)Cc1cnn(C)c1
The cytotoxicity at 70.5 h of the first is lower: -4% for the first, -3.49% for the second.
